Test results from US7341836B2, “Modified cyclic nucleotide gated ion channels” (The Regents of the University of Colorado, priority 2001, dated 2008).
Entries after “also recorded” stand apart in the source; their conditions may differ.

Key:
[1] = system: PDE activity in GH4C1 cells; assay: Effect of PDE inhibitors, forskolin and VIP on cAMP levels (Ca2+ influx through CNG channels); type: cell-based, rat; settings: for d(ΔF/F0)/dt: basal cAMP, inhibitor concentration (μM); for d(ΔF/F0)/dt / Ca2+ influx induced by the PDE inhibitor alone (basal cAMP): C460W/E583M channels; for Ca2+ influx induced by the PDE inhibitor alone (basal cAMP): no AC stimulation; for effect on forskolin-induced Ca2+ influx / PDE activity: Δ61-90/C460W/E583M channels, 10 μM forskolin
Procedure, shortened: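 GH4C1 rat pituitary cells expressing high-affinity C460W/E583M or Δ61-90/C460W/E583M CNG channels (adenovirus), with 1 μM nimodipine at time zero; cAMP read as Ca2+ influx rate d(ΔF/F0)/dt. PDE inhibitors or 100 μM IBMX added at 60 s, then 10 μM forskolin or 100 nM VIP at 240 s; mean±SE.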

[2] = system: PDE activity in HEK-293 cells; assay: Effect and in vivo KI of PDE inhibitors on forskolin-induced Ca2+ influx through CNG channels; settings: for effect on forskolin-induced Ca2+ influx: 1 μM forskolin, IBMX 10 or 100 μM, RO-20-1724 10 μM; for time to complete equilibration across the plasma membrane of HEK-293 cells: human, pH 7.4
Procedure: Next, experiments were conducted to pharmacologically identify the PDE type(s) that regulates cAMP levels near CNG channels. The C460W/E583M channels were used to monitor forskolin-stimulated cAMP accumulation in the presence and absence of a series of PDE inhibitors. […] In these experiments, inhibitor concentrations were used at which specific PDE types should be inhibited.
This required developing a quantitative framework to assess the relationship between cAMP synthesis, hydrolysis, and redistribution throughout the cell. Thus, the following formalism was adopted:
[formula] where C is the steady-state rate of cAMP synthesis by AC, Vmax is the maximal rate of cAMP hydrolysis, Km is the Michaelis constant for PDE, and kf is the rate constant of cAMP flux out of the microdomain. In order to estimate KI for the PDE inhibitors two assumptions were made. First, it was assumed that at low levels of AC stimulation and PDE inhibition, the concentration of local cAMP is low and diffusion of cAMP out of the microdomain is negligible. Second, the assumption was made that cAMP levels reach steady-state shortly after AC stimulation (i.e., equal rates of synthesis and hydrolysis). With these assumptions, Eq. 4 can be simplified to:
[formula] […] At low cAMP concentrations (<K1/2 for the channel), the cAMP concentration is proportional to the square root of the Ca^2+ influx rate (the Hill coefficient for channel activation is approximately 2). Thus, KI, can be estimated using a linear fit to the square root of the slopes of the fluorescence traces as a function of inhibitor concentration (See, FIG. 11).
Increases in local cAMP concentration activate CNG channels and trigger Ca^2+ entry. Ca^2+ influx was monitored in cell populations using the fluorescent indicator fura-2.
Additions were made by pipetting stock solutions into a stirred cuvette. The solutions were then assayed using an LS-50B spectrofluorimeter (Perkin Elmer). […]
Fluorescence was measured at an excitation wavelength of 380 nm and an emission wavelength of 510 nm. […] The MATLAB software package (MathWorks) was used for curve fitting and simulations.
The C460W/E583M channels were used to monitor forskolin-stimulated cAMP accumulation in the presence and absence of a series of PDE inhibitors. […] In these experiments, inhibitor concentrations were used at which specific PDE types should be inhibited.
[formula] where C is the steady-state rate of cAMP synthesis by AC, Vmax is the maximal rate of cAMP hydrolysis, Km is the Michaelis constant for PDE, and kf is the rate constant of cAMP flux out of the microdomain. In order to estimate KI for the PDE inhibitors, two assumptions were made.

[3] = C460W/E583M channels, 0.5 μM forskolin, n=4
[4] = FIG. 11, the experiments shown, C460W/E583M channels, 0.5 μM forskolin

Row | Compound | d(ΔF/F0)/dt [1] [s⁻¹] | Ca2+ influx induced by the PDE inhibitor alone (basal cAMP) [1] | effect on forskolin-induced Ca2+ influx / PDE activity [1] | Ki [2, 3] [nM] | effect on forskolin-induced Ca2+ influx ([2]; C460W/E583M channels) | Ki [2, 4] [nM] | time to complete equilibration across the plasma membrane of HEK-293 cells [2] [s] | slope of ΔF/F0 ([2]; 50 nM rolipram at 0 s, 0.5 μM forskolin at 180 s, C460W/E583M channels) [s⁻¹] | Ki ([2]; Δ61-90/C460W/E583M channels, n=3) [nM]
1 | CCCCCC[C@@H]([C@@H](C)O)n1cnc2c(N)ncnc21 (racemic) [EHNA] | 0.0029 ± 0.0011 |  |  |  |  |  |  |  | 
2 | CC(C)Cn1c(=O)n(C)c(=O)c2[nH]cnc21 [IBMX, 3-isobutyl-1-methylxanthine] |  | induced Ca^2+ influx through CNG channels | significantly inhibited PDE activity; also recorded: increase forskolin-induced Ca^2+ influx through CNG channels | 11000 ± 2000 | significant forskolin-induced Ca^2+ influx was observed; also recorded: influenced the time course of forskolin-induced Ca^2+ influx | 10000 | < 180 |  | 
3 | COc1ccc(C2CNC(=O)C2)cc1OC1CCCC1 (stereo not shown) [Rolipram] | 0 | No RO-20-1724- or rolipram-sensitive PDE was observed | also inhibited PDE activity; also recorded: increase forskolin-induced Ca^2+ influx through CNG channels | 70 ± 20 | significantly increased the forskolin-induced Ca^2+ influx | 90 |  | 0.00062 | 
4 | CCCCOc1cc(CC2CNC(=O)N2)ccc1OC (stereo not shown) [RO-20-1724, 4-(3-butoxy-4-methoxybenzyl)-2-imidazolidinone] | 0 | No RO-20-1724- or rolipram-sensitive PDE was observed | also inhibited PDE activity; also recorded: increase forskolin-induced Ca^2+ influx through CNG channels | 130 ± 20 | significant forskolin-induced Ca^2+ influx was observed; also recorded: influenced the time course of forskolin-induced Ca^2+ influx | 140 | < 180 |  | 150 ± 20
